“Also recorded” adds a separate entry of the source.
Legend:
[1] = target: CYP 2C8 (Homo sapiens, UniProt P10632); experiment: CYP450 inhibition; type: in vitro ADME
[2] = test system: CYP450; experiment: time-dependent CYP450 inhibition; type: in vitro ADME; settings: result in words
[3] = IV/PO pharmacokinetics (rat); type: in vivo; settings: Rat (SD)
[4] = brain to plasma ratio (rat); type: in vivo
Description: covered in Principles of Laboratory Animal Care (National Institutes of Health). All rats were fasted overnight prior to testing.
For determination of the brain over plasma ratio (Kp), compounds were formulated in 8% ethanol, 32% PEG400 and 60% DMSO (v/v/v) and administered as a single 0.2 mg/kg IV dose (1 mL/kg) to male, Sprague Dawley rats (n = 1) via injection into a surgically-implanted jugular vein catheter. At 15 min post dosing, blood sample was collected into chilled, K2EDTA anticoagulant-fortified tube and immediately placed on wet ice. The blood sample was then centrifuged (1700 rcf, 5 minutes, 4 °C) to obtain plasma sample. At the same post-administration time point, whole brain sample was obtained by rapid dissection, rinsed with PBS, and immediately frozen in individual tissue collection box (dry ice). All brain and plasma samples were stored at -80 °C until […]
Sample Analysis: Concentrations in plasma and brain homogenates were quantified by liquid chromatography tandem mass spectrometry (LC-MS/MS). Whole brains were homogenized in 3 mL of 70:30 IPA:water in a mini bead beater for 3 min, and centrifuged at 3,500 g for 5 min. 5 uL of the supernatant was diluted in 15 uL of blank plasma for quantification of the analytes. Plasma samples were centrifuged at 3,500 g for 5 min. […]
Plasma and brain tissue samples originating from in vivo studies were analyzed by electrospray ionization using an AB Sciex Q-TRAP 5500 (Foster City, CA) that was coupled to a Shimadzu LC-20AD pump (Columbia, MD) and a Leap Technologies CTC PAL auto-sampler (Carrboro, NC). […]
min, with an isocratic hold for 0.5 min, before transitioning to 10% B over 0.05 min. […] All data were analyzed using AB Sciex Analyst 1.5.1 software.
Brain plasma concentration ratio (Kp) was calculated by dividing brain concentration by plasma concentration for each animal. Unbound brain to unbound plasma concentration ratio (Kp,uu) is calculated using the following formula: Kp,uu = (Brain ng/g x brain fu)/(plasma ng/ml x plasma fu). […]

[5] = target: 3A4 (Homo sapiens, UniProt P08684); experiment: CYP450 phenotyping, recombinant enzymes; type: in vitro ADME; settings: 3A4, panel of eight recombinant enzymes
[6] = rat oral dose escalation PK study; type: in vivo; settings: for AUC(0-t) / Cmax / AUC / Tmax: Sprague-Dawley, plasma; for Cmax / AUC / Tmax: rat, po
Description: Pharmacokinetic profiles in rats following oral single escalating doses Single escalating oral dosing in Sprague-Dawley rats was performed at Frontage Laboratories according to their non-GLP Standard Operating Procedure and IACUC protocols. In short, […]
arterial blood was collected from a femoral artery catheter, and compound concentration was determined in plasma by LC-MS/MS following their non-GLP protocol. PK parameters were determined using Phoenix WinNonlin software (version 6.3). […]

[7] = target: Adenosine A2A (Homo sapiens, UniProt P29274); experiment: Eurofins radioligand binding
[8] = target: Adrenergic β1 (Homo sapiens, UniProt P08588); experiment: Eurofins radioligand binding
[9] = target: Androgen (Testosterone) (Homo sapiens, UniProt P10275); experiment: Eurofins radioligand binding
[10] = test system: Calcium Channel L-Type, Dihydropyridine; experiment: Eurofins radioligand binding; settings: Rat
[11] = target: Muscarinic M1 (Homo sapiens, UniProt P11229); experiment: Eurofins radioligand binding
[12] = target: Potassium Channel [KATP] (Cricetus cricetus, UniProt Q09427); experiment: Eurofins radioligand binding; settings: Hamster
[13] = 10 mg/kg, rat PO 10 mpk, 10% Tween
[14] = 10 mg/kg, rat PO 10 mpk, 100% PEG
[15] = 30 mg/kg, rat PO 30 mpk, 10% Tween
[16] = 30 mg/kg, rat PO 30 mpk, 100% PEG
[17] = 100 mg/kg, rat PO 100 mpk, 10% Tween
[18] = 100 mg/kg, rat PO 100 mpk, 100% PEG

Sequence of Androgen (Testosterone) (P10275 whole entry): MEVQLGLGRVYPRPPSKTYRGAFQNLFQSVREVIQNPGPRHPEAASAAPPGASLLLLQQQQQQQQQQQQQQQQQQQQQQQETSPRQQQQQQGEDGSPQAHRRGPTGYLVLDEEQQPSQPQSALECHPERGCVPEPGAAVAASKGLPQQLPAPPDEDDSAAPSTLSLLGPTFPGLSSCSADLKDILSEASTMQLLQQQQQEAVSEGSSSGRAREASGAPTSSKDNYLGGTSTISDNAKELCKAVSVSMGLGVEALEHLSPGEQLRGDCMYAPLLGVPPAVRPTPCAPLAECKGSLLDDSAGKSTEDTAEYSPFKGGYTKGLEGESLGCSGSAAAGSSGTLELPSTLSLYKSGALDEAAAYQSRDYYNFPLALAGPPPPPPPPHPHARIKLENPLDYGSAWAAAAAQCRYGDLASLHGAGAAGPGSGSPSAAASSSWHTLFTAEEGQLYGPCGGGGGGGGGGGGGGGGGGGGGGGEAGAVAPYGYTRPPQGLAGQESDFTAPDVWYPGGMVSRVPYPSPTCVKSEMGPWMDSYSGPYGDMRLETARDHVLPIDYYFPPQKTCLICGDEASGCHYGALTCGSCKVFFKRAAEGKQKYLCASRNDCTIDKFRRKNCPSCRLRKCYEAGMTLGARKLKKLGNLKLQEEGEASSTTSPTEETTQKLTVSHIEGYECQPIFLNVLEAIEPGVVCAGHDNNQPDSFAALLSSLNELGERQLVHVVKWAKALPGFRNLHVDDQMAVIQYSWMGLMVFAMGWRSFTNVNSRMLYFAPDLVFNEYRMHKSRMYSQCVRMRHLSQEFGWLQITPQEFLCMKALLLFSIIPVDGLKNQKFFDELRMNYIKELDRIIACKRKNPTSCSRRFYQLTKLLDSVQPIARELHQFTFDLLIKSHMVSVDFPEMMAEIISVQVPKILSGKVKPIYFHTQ
Sequence of 3A4 (P08684 whole entry): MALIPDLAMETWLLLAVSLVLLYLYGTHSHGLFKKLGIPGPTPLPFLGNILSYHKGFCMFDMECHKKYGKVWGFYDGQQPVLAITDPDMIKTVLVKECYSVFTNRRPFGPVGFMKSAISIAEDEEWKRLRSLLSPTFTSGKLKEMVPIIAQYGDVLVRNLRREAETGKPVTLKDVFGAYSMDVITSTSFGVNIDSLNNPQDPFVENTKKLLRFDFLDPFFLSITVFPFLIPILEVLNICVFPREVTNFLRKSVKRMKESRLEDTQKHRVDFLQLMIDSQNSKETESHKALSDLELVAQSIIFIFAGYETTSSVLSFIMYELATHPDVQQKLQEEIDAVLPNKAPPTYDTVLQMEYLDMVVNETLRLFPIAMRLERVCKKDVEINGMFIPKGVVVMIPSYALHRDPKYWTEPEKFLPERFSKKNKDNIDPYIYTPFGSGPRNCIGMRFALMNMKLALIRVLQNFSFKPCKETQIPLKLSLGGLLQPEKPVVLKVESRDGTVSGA
Sequence of Adrenergic β1 (P08588 whole entry): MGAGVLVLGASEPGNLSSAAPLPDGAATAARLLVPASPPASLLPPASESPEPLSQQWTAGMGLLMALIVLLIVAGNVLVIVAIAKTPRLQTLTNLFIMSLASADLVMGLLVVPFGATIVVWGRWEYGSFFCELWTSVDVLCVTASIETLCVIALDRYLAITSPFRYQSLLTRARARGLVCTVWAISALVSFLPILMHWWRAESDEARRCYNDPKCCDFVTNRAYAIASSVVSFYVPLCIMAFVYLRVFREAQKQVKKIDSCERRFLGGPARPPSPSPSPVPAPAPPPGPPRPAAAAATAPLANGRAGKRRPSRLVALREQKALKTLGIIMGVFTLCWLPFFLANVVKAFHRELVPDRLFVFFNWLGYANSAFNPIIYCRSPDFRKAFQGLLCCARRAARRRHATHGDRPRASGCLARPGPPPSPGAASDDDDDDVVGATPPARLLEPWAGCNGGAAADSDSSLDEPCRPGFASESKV
Sequence of Potassium Channel [KATP] (Q09427 whole entry): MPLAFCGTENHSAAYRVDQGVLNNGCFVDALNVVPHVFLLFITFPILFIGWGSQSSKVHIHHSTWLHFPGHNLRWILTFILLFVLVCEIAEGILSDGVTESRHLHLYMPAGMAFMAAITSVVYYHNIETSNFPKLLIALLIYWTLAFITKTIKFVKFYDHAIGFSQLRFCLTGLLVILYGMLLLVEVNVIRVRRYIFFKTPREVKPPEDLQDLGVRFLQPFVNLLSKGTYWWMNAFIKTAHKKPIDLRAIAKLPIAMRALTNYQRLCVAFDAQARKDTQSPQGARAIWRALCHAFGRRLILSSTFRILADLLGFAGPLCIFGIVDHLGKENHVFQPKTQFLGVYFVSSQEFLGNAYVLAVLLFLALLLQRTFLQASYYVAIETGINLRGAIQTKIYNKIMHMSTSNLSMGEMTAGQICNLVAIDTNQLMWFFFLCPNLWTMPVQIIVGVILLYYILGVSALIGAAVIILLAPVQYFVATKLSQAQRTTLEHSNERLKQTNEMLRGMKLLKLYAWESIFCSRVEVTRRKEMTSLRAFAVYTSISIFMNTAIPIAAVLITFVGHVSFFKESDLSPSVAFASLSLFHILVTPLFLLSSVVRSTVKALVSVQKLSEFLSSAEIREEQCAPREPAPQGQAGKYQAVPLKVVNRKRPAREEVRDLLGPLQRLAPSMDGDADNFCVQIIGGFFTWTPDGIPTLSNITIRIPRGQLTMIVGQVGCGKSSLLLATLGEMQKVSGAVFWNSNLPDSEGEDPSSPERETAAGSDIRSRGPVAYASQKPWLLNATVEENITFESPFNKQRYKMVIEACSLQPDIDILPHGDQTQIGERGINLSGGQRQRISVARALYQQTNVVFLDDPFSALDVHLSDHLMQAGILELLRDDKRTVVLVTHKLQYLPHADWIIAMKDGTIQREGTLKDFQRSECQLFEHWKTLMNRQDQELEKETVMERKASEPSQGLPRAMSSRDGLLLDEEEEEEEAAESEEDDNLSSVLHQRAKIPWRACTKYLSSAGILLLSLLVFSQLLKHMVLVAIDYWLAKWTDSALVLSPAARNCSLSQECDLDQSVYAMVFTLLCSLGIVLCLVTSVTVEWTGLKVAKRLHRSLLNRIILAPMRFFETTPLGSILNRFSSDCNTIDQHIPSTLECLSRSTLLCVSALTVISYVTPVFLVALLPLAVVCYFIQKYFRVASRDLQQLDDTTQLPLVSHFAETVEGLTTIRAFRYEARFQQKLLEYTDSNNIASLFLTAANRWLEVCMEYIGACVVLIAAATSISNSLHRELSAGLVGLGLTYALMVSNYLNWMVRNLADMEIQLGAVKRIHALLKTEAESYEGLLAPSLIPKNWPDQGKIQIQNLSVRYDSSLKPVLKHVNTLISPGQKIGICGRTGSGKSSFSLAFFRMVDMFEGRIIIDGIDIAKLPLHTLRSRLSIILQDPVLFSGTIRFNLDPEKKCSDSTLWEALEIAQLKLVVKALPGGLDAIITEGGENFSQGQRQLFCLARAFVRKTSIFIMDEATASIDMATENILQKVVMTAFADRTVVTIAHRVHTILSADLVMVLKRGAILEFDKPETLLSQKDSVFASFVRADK
Sequence of CYP 2C8 (P10632 whole entry): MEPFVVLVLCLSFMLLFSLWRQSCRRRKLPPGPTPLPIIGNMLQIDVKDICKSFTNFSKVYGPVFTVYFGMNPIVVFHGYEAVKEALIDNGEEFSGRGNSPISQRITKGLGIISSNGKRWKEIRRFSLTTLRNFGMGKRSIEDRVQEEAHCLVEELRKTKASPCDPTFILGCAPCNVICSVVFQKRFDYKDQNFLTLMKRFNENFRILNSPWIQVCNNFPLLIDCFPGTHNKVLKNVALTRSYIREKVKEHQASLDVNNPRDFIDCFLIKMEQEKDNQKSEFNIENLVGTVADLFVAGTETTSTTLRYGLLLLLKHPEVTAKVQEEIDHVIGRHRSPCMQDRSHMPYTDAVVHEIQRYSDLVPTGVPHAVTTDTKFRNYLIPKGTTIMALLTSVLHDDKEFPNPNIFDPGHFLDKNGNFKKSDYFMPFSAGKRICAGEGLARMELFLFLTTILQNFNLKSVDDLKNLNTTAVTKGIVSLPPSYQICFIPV
Sequence of Adenosine A2A (P29274 whole entry): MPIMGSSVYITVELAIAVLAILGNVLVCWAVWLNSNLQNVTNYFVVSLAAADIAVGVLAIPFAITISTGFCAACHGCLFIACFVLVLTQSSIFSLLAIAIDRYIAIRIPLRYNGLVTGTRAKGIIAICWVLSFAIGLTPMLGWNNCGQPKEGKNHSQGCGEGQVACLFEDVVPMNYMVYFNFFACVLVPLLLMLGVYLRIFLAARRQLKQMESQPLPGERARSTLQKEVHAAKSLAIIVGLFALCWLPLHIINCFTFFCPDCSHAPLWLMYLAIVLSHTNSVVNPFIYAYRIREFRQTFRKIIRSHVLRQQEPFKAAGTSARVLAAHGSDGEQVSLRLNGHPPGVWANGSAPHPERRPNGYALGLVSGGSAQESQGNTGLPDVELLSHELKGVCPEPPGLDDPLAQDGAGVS
Sequence of Muscarinic M1 (P11229 whole entry): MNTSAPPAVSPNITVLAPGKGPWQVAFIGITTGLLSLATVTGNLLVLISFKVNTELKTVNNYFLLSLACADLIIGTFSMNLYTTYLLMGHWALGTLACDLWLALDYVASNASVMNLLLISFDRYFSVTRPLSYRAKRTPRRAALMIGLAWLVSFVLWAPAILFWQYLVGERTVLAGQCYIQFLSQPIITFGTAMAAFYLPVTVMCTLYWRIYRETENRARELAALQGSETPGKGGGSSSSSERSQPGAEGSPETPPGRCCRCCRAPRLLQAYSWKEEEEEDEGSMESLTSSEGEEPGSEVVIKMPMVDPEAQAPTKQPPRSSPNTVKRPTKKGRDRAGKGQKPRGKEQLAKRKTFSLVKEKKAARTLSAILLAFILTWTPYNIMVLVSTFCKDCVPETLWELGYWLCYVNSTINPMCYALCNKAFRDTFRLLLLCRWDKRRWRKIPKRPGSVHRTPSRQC

## Cn1cc2c(-c3cc(F)c(CN4Cc5ncccc5C4=O)c(F)c3)ccc(C(C)(C)O)c2n1 [compound 7]
[1]
  IC50: > 30 µM
[2]
  time-dependent CYP450 inhibition: no evidence of time-dependent inhibition; also recorded: no CYP450 inhibition or time-dependent CYP450 inhibition liabilities
[3]; 10 mg/kg po, 10 mg/kg
  F (%) po: >100%
[3]; Sprague-Dawley, plasma, 1 mg/kg iv, read-out: CLp
  clearance: 5.8 mL/min/kg
[3]; Sprague-Dawley, plasma, 1 mg/kg iv, read-out: Elimination t1/2 (converted)
  half-life: 3.7 h
[3]; Sprague-Dawley, plasma, 1 mg/kg iv, read-out: Vss
  Vd: 1.3 L/kg
[3]; Sprague-Dawley, plasma, 10 mg/kg po
  AUC: 110 µM·h
[3]; plasma, 10 mg/kg po
  Cmax: 15.9 µM
  Tmax: 1 h
[4]; brain:plasma
  Kp: 1.08
[4]; male, Sprague Dawley, brain and plasma, intravenous, 0.2 mg/kg, brain:plasma
  Kp at 15 min: 1.07
[4]; male, Sprague Dawley, brain and plasma, intravenous, 0.2 mg/kg, unbound brain:unbound plasma
  Kp uu at 15 min: 1.27
[5]
  contribution to metabolism, CYP450 phenotyping: 96.8%
[6]; rat PO 10 mg/kg, 10% aqueous Tween 80 suspension
  AUC(0-t): 23800 ng·h/mL
[6]; rat PO 30 mg/kg, 10% aqueous Tween 80 suspension
  AUC(0-t): 66500 ng·h/mL
[6]; rat PO 100 mg/kg, 10% aqueous Tween 80 suspension
  AUC(0-t): 96200 ng·h/mL
[6]; 10 mg/kg, rat PO 10 mg/kg, 10% aqueous Tween 80 suspension
  Cmax: 2340 ng/mL
[6]; [13]
  AUC: 23800 ng·h/mL
  Tmax: 2.17 h
[6]; [14]
  AUC: 20600 ng·h/mL
  Cmax: 2390 ng/mL
  Tmax: 3.33 h
[6]; 30 mg/kg, rat PO 30 mg/kg, 10% aqueous Tween 80 suspension
  Cmax: 7640 ng/mL
[6]; [15]
  AUC: 66700 ng·h/mL
  Tmax: 2.67 h
[6]; [16]
  AUC: 115000 ng·h/mL
  Cmax: 12200 ng/mL
  Tmax: 4 h
[6]; 100 mg/kg, rat PO 100 mg/kg, 10% aqueous Tween 80 suspension
  Cmax: 10900 ng/mL
[6]; [17]
  AUC: 96800 ng·h/mL
  Tmax: 4 h
[6]; [18]
  AUC: 316000 ng·h/mL
  Cmax: 24700 ng/mL
  Tmax: 4 h
[6]; result in words
  cholinergic signs or adverse events in rat dose escalation: no cholinergic signs or adverse events were noted in rats
[7]
  inhibition at 10 µM: 3%
[8]
  inhibition at 10 µM: 5%
[9]
  inhibition at 10 µM: -4%
[10]
  % Inhibition at 10 µM: 59%
[11]
  inhibition at 10 µM: 18%
[12]
  inhibition at 10 µM: 11%

From paper PMC12715762, “Discovery of VU6052254: A Novel, Potent M1 Positive Allosteric Modulator” (ACS Chemical Neuroscience, 2025)
